Experimental data from US12643871B2, “Aryl formamide compound containing chiral sulfur oxide or salt thereof, preparation method, herbicidal composition and use thereof” (Qingdao Kingagroot Chemical Compound Co., Ltd., priority 2019, dated 2026).

How the values were obtained:
Assay type in all cases: in vivo
[1] = system: Setaria viridis; test: Weeding effect in post-emergence stage; settings: 250 g/ha; 2 leaf stage; 15 days after application; fresh weight control rate
Outline: (§1)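 Pot-grown weeds sprayed post-emergence at the 2-leaf stage, 2 weeks after sowing, with compound in acetone/Tween 80 plus 1.5 L/ha methyl oleate concentrate at 500–15 g/ha. Fresh-weight growth control scored after 15 days in greenhouse, mean of three replicates, graded levels 0–5 (5: >85%, 0: <5%).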

[2] = system: Abutilon theophrasti; test: Weeding effect in post-emergence stage; settings: 250 g/ha; 2 leaf stage; 15 days after application; fresh weight control rate
Outline: as §1

[3] = system: Echinochloa crusgali; test: Weeding effect in post-emergence stage; settings: 250 g/ha; 2 leaf stage; 15 days after application; fresh weight control rate
Outline: as §1

[4] = system: Amaranthus retroflexus; test: Weeding effect in post-emergence stage; settings: 250 g/ha; 2 leaf stage; 15 days after application; fresh weight control rate
Outline: as §1

[5] = system: Digitaria sanguinalis; test: Weeding effect in post-emergence stage; settings: 250 g/ha; 2 leaf stage; 15 days after application; fresh weight control rate
Outline: as §1

[6] = system: key weeds such as Digitaria sanguinalis, Leptochloa chinensis; test: Comparison experiment (post-emergence, Tables 4-7), herbicidal activity on weeds not listed separately; settings: dose of 125, 60, 30, 15 g/ha
Outline: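 Weeds sown in soil-filled pots, covered with 0.5-2 cm soil and grown in greenhouse; sprayed at 2-leaf stage (2 weeks after sowing) with compound in acetone/Tween 80 plus 1.5 liter/ha methyl oleate concentrate. Doses 500–15 g/ha; fresh weight control rated after 15 days, mean of three repeats.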

[7] = system: rice and other crops; test: Comparison experiment (post-emergence, Tables 4-7), crop safety; settings: dose of 125, 60, 30, 15 g/ha
Description: The above growth control rates are fresh weight control rates.
Experiment on weeding effect in post-emergence stage: monocotyledonous and dicotyledonous weed seeds (Descurainia sophia, Capsella bursa-pastoris, Galium aparine, Stellaria media, Lithospermum arvense, Rorippa indica, Alopecurus aequalis, Beckmannia syzigachne, Sclerochloa dura, Phleum paniculatum, Bromus japonicus, Aegilops tauschii, Phalaris arundinacea, Amaranthus retroflexus, Chenopodiaceae, Commelina communis, Sonchus arvensis, convolvulus arvensis, Cirsium setosum, Solanum nigrum, Acalypha australis, Digitaria sanguinalis, Echinochloa crusgalli, Setaria viridis, Setaria glauca, Leptochloa chinensis, Monochoria vaginalis, Sagittaria trifolia, Scirpus juncoides, Cyperus rotundus, Cyperus iria, Cyperus difformis, Fimbristylis, Portulaca oleracea, Xanthium sibiricum, Pharbitis nil) and major crop seeds (wheat, corn, rice, soybean, cotton, oilseed rape, millet, sorghum, potato, sesame, ricinus) were placed in plastic pots filled with soil, then covered with 0.5-2 cm of soil, allowed to grow in a good greenhouse environment. After 2 weeks of sowing, the test plants were treated in the 2 leaf stage. The tested compounds of the present invention were respectively dissolved in acetone, then added with Tween 80 and 1.5 liter/ha of emulsifiable concentrate of methyl oleate as synergist, diluted with a certain amount of water to obtain a solution with a certain concentration, and sprayed with a spray tower onto the plants. After the application, the plants were cultured for 15 days in the greenhouse, and then the experimental results of the weeding were counted. The doses of the used compounds were 500, 250, 125, 60, 30, 15 g/ha, and the averages were obtained by repeating for three times.
If there is no clear marker, the post-seedling test conditions are the same as above, and the experimental results are shown in Tables 4-7.

SMILES	weeding effect in post-emergence stage, activity level (growth control rate), Setaria viridis [1]	weeding effect in post-emergence stage, activity level (growth control rate), Abutilon theophrasti [2]	weeding effect in post-emergence stage, activity level (growth control rate), Echinochloa crusgali [3]	weeding effect in post-emergence stage, activity level (growth control rate), Amaranthus retroflexus [4]	weeding effect in post-emergence stage, activity level (growth control rate), Digitaria sanguinalis [5]	activity to key weeds such as Digitaria sanguinalis, Leptochloa chinensis compared with the corresponding racemate or S configuration [6]	safety to rice and other crops compared with the corresponding racemate or S configuration [7]
Cc1nnc(NC(=O)c2ccc(C(F)(F)F)c([S@+]([O-])CC=C(Cl)Cl)c2F)o1 [Compound 40]	5 (Level 5: growth control rate is above 85%)	5 (Level 5: growth control rate is above 85%)	5 (Level 5: growth control rate is above 85%)	5 (Level 5: growth control rate is above 85%)	5 (Level 5: growth control rate is above 85%)	better activity	higher safety
Cc1nnc(NC(=O)c2ccc(C(F)(F)F)c([S@+]([O-])CCC#N)c2F)o1 [Compound 52]	5 (Level 5: growth control rate is above 85%)	5 (Level 5: growth control rate is above 85%)	5 (Level 5: growth control rate is above 85%)	5 (Level 5: growth control rate is above 85%)	5 (Level 5: growth control rate is above 85%)	better activity	higher safety
Cc1nnc(NC(=O)c2ccc(C(F)(F)F)c([S@+]([O-])CCO)c2F)o1 [Compound 54]	5 (Level 5: growth control rate is above 85%)	5 (Level 5: growth control rate is above 85%)	5 (Level 5: growth control rate is above 85%)	5 (Level 5: growth control rate is above 85%)	5 (Level 5: growth control rate is above 85%)	better activity	higher safety
CNCC[S@@+]([O-])c1c(C(F)(F)F)ccc(C(=O)Nc2nnc(C)o2)c1F [Compound 67]	5 (Level 5: growth control rate is above 85%)	5 (Level 5: growth control rate is above 85%)	5 (Level 5: growth control rate is above 85%)	5 (Level 5: growth control rate is above 85%)	5 (Level 5: growth control rate is above 85%)	better activity	higher safety
COC[S+]([O-])c1c(C(F)(F)F)ccc(C(=O)Nc2nnc(C)o2)c1F (stereo not drawn) [Compound 69]	5 (Level 5: growth control rate is above 85%)	5 (Level 5: growth control rate is above 85%)	5 (Level 5: growth control rate is above 85%)	5 (Level 5: growth control rate is above 85%)	5 (Level 5: growth control rate is above 85%)	better activity	higher safety
CC(C)=NOCC[S@@+]([O-])c1c(C(F)(F)F)ccc(C(=O)Nc2nnc(C)o2)c1F [Compound 166]	5 (Level 5: growth control rate is above 85%)	5 (Level 5: growth control rate is above 85%)	5 (Level 5: growth control rate is above 85%)	5 (Level 5: growth control rate is above 85%)	5 (Level 5: growth control rate is above 85%)	better activity	higher safety
Cc1nnc(NC(=O)c2ccc(C(F)(F)F)c([S@@+]([O-])C[S+](C)[O-])c2F)o1 (stereo partly drawn) [Compound 205]	5 (Level 5: growth control rate is above 85%)	5 (Level 5: growth control rate is above 85%)	5 (Level 5: growth control rate is above 85%)	5 (Level 5: growth control rate is above 85%)	5 (Level 5: growth control rate is above 85%)	better activity	higher safety
CCC[S@@+]([O-])c1c(C(F)(F)F)ccc(C(=O)N(c2nnc(C)o2)C(C)OC(=O)OCC)c1F (stereo partly drawn) [Compound 261]	5 (Level 5: growth control rate is above 85%)	5 (Level 5: growth control rate is above 85%)	5 (Level 5: growth control rate is above 85%)	5 (Level 5: growth control rate is above 85%)	5 (Level 5: growth control rate is above 85%)	better activity	higher safety
CCC[S@@+]([O-])c1c(C(F)F)ccc(C(=O)Nc2nnc(C)o2)c1Cl [Compound 617]	5 (Level 5: growth control rate is above 85%)	5 (Level 5: growth control rate is above 85%)	5 (Level 5: growth control rate is above 85%)	5 (Level 5: growth control rate is above 85%)	5 (Level 5: growth control rate is above 85%)	better activity	higher safety
